Assay results reported in patent US8193180B2, “N-amino tetrahydrothiazine derivatives, method of manufacture and use” (Women & Infants Hospital, priority 2007, dated 2012).

Tests used:
stage III ovarian cancer = experiment: Ovarian cancer treatment, patient case (Example 10); type: in vivo, human; settings: 10 mg/kg daily orally or IV for 48 days
Protocol: A subject presents with recurrent/progressive stage III ovarian cancer refractory to all other treatments. The subject is treated daily with 10 mg/kg of N-(3-methyl-1,1-dioxo-1,4-thiazinan-4-yl)-1-[3-chloro, 5-bromo coumarin-2-carbonyl] orally or IV for 48 days.

breast cancer = experiment: Breast cancer prophylaxis, patient case (Example 8); type: in vivo, human; settings: 5 mg/kg daily by tablets for 48 months, BRCA 1 and 2 markers
Protocol: A subject presents normally, but has BRCA 1 and 2 markers as well as a family history of breast cancer. The subject is treated daily with 5 mg/kg of N-(3-methyl-1,1-dioxo-1,4-thiazinan-4-yl)-1-[5,6-dimethoxy coumarin-2-yl]methanimine by tablets for 48 months.

[1] = system: Stage V Alzheimer's disease; experiment: Alzheimer treatment, patient case (second Example 10); type: in vivo, human; settings: 5 mg/kg oral daily, chronically, six month period
Protocol: A subject presents with Stage V Alzheimer's disease. The subject is treated daily with 5 mg/kg oral doses of N-(3-methyl-1,1-dioxo-1,4-thiazinan-4-yl)-1-[3,4,5-trimethoxy phenyl sulfonyl], chronically.

end stage liver cancer = experiment: Liver cancer treatment, patient case (Example 9); type: in vivo, human; settings: 10 mg/kg daily orally or IV for 48 days
Protocol: A subject presents with end stage liver cancer refractory to all other treatments. The subject is treated daily with 10 mg/kg of N-(3-methyl-1,1-dioxo-1,4-thiazinan-4-yl)-1-[1-phenyl, 1-furan-2-yl] orally or IV for 48 days.

[2] = system: Stage IV pancreatic cancer; experiment: Treatment of pancreatic cancer, patient case (Example 7); type: in vivo, human; settings: 10 mg/kg/day tablets every other day for 30 days (15 doses)
Protocol: A subject presents with Stage IV pancreatic cancer. The subject is treated daily with 10 mg/kg/day of N-(3-methyl-1,1-dioxo-1,4-thiazinan-4-yl)-1-[1-phenyl, 1-acetic acid]methane by tablets every other day for 30 consecutive days (15 doses). Upon examination, cancer involvement is found reduced by about 20%.

[3] = system: SMS-KCNR neuroblastoma cells; experiment: cells; settings: Homo sapiens, 48 h, read-out: cell viability, mean value
Protocol: SMS-KCNR neuroblastoma cells were incubated for 48 hours with increasing levels of either nifurtimox or RKS-2-62, and cytotoxicity was determined using the Calcein AM cell viability assay. […] SMSKCNR cells were plated in 48 wells plates and treated with 0-20 μg/mL of either RKS-2-62 or nifurtimox for 48 hours. Cell viability was assessed using Calcein AM assay.

Stage IV neuroblastoma = experiment: Treatment of neuroblastoma, patient case (Example 5); type: in vivo, human
Source text: A person presents with Stage IV neuroblastoma. […] Upon examination, tumor mass is found reduced by about 50%.

SMSKCNR cells [4] = experiment: Reactive oxygen species, carboxylated DCF flow cytometry; type: cell-based, human; settings: 90 minutes incubation, vs control
Protocol: RKS-2-62 increases reactive oxygen species in neuroblastoma cells. SMSKCNR cells treated with RKS-2-62 were incubated with carboxyl-DCF. SMSKCNR cells were grown in T25 flasks and incubated in RKS-2-62 for 90 minutes prior to treatment with carboxylated DCF. Cells were collected and analyzed by flow cytometry. […] Control is the left hand peak in grey. RKS-2-62 is the right hand peak. Oxidation of DCF by reactive oxygen species (ROS) causes increased fluorescence, and a lower concentration of RKS-2-62 than of nifurtimox was required to achieve the same effect.

[5] = system: DAOY medulloblastoma cells; experiment: Calcein AM cell viability assay, DAOY medulloblastoma cells; type: cell-based; settings: 48 hours
Source text: (§1) For the D283 cell line, viability after exposure to RKS was decreased compared to nifurtimox (P=0.008), with similar results for the DAOY cell line (P=0.026).

[6] = system: D283 medulloblastoma cells; experiment: Calcein AM cell viability assay, D283 medulloblastoma cells; type: cell-based; settings: 48 hours
Source text: as §1

SMSKCNR cells [7] = experiment: Neuroblastoma xenograft mouse model, oral dosing in food pellets; settings: 3 weeks
Protocol: Nude mice were injected subcutaneously in the flank with 10^7 SMSKCNR cells and tumors were allowed to grow for 7 days. Mice were then fed either control food pellets or pellets containing 50, 100, or 150 mg/kg/day of RKS-2-62 for 3 weeks (4 mice per group). Tumors were harvested and weighed.

[8] = Chloroform/water partition test; type: physicochemical
Protocol: In addition, RKS-2-26 is lipid soluble and likely to cross the blood brain barrier. […] Then 1 mL of distilled water was added and vortexed.

Stage IV breast cancer = experiment: Treatment of breast cancer, patient case (Example 6); type: in vivo, human; settings: 10 mg/kg/day orally or IV daily for 15 consecutive days
Protocol: A subject presents with Stage IV breast cancer and axillary lymph node involvement. The subject is treated with 10 mg/kg/day of N-(3-methyl-1,1-dioxo-1,4-thiazinan-4-yl)-1-[1-phenyl, 1-methanol]methane orally or IV daily for 15 consecutive days. Upon examination, cancer involvement is found reduced by about 20%.

SMILES: CC1CS(=O)(=O)CCN1NC(=O)c1c(Cl)c2cc(Br)ccc2oc1=O (stereo not shown)
- tumor growth upon examination (stage III ovarian cancer): no further tumor growth is noted

SMILES: COc1cc2cc(C=NN3CCS(=O)(=O)CC3C)c(=O)oc2cc1OC (stereo not shown)
- cancer involvement upon examination (breast cancer): no cancer involvement is found

SMILES: COc1cc(S(=O)(=O)NN2CCS(=O)(=O)CC2C)cc(OC)c1OC (stereo not shown) [N-(3-methyl-1,1-dioxo-1,4-thiazinan-4-yl)-1-[1-(3,4,5-trimethoxyphenylsulfonyl]]
- progression of the disease [1]: substantially no progression of the disease is noted

SMILES: CC1CS(=O)(=O)CCN1N(c1ccccc1)c1ccco1 (stereo not shown) [N-(3-methyl-1,1-dioxo-1,4-thiazinan-4-yl)-1-[1-phenyl, 1-furan-2-yl]]
- liver cancer involvement upon examination (end stage liver cancer): no liver cancer involvement is found

SMILES: CC1CS(=O)(=O)CCN1NC(CC(=O)O)c1ccccc1 (stereo not shown) [N-(3-methyl-1,1-dioxo-1,4-thiazinan-4-yl)-1-[1-phenyl, 1-acetic acid]methane]
- reduction of cancer involvement [2]: about 20%

SMILES: CC1CS(=O)(=O)CCN1/N=C\c1ccc([N+](=O)[O-])o1 (stereo not shown) [nifurtimox, reference compound]
- viability at 5 µg/mL [3]: 88.4%

SMILES: CC1CS(=O)(=O)CCN1NC(c1ccccc1)c1ccccc1 (stereo not shown) [N-(3-methyl-1,1-dioxo-1,4-thiazinan-4-yl)-1-[1,1-diphenyl]methane]
- tumor response (Stage IV neuroblastoma; 15 mg/kg/day orally or IV for 2 weeks): tumor stabilization
- reduction of tumor mass (Stage IV neuroblastoma; with further addition of cyclophosphamide and topotecan, 8 weeks): about 50%

SMILES: CC1CS(=O)(=O)CCN1N=Cc1c(Cl)c2cc(Br)ccc2oc1=O (stereo not shown) [RKS-2-62]
- production of ROS (DCF fluorescence) (SMSKCNR cells [4]): increase in production of ROS
- growth inhibition compared with nifurtimox ([5]; 0-10 μg/mL): inhibited the growth of both cell lines in a dose-dependent fashion and to a greater extent than nifurtimox
- cytotoxicity at 10 µg/mL ([5]; Homo sapiens, 10 μg/mL, read-out: decrease of viability): > 80%
- growth inhibition compared with nifurtimox ([6]; 0-10 μg/mL): inhibited the growth of both cell lines in a dose-dependent fashion and to a greater extent than nifurtimox
- cytotoxicity at 10 µg/mL ([6]; 10 μg/mL, read-out: decrease of viability): > 80%
- viability at 5 µg/mL [3]: 51.9%
- decrease of tumor weight compared to the control group (SMSKCNR cells [7]; 50 mg/kg/day oral in food pellets): greater than 75%
- decrease of tumor weight compared to the control group (SMSKCNR cells [7]; 100 mg/kg/day oral in food pellets): greater than 75%
- decrease of tumor weight compared to the control group (SMSKCNR cells [7]; 150 mg/kg/day oral in food pellets): greater than 75%
- tolerability compared with nifurtimox (SMSKCNR cells [7]; mice, oral): better tolerated in mice than nifurtimox
- lipid solubility [8]: lipid soluble
- distribution between chloroform layer and aqueous layer ([8]; 10 μg/μL in chloroform, 1 mL distilled water added, vortexed): remained solely in the chloroform layer and not the aqueous layer
- solubility in chloroform ([8]; solution of 10 μg/μL): shown to dissolve in chloroform

SMILES: CC1CS(=O)(=O)CCN1NC(CO)c1ccccc1 (stereo not shown) [N-(3-methyl-1,1-dioxo-1,4-thiazinan-4-yl)-1-[1-phenyl, 1-methanol]methane]
- reduction of cancer involvement (Stage IV breast cancer): about 20%
